Source: patent US5519028A, “Antiviral preparations” (priority 1992, dated 1996)

Assays:
Assay type in all cases: cell-based, human
interleukin-6 = test: IL-6 production by monocytes of HIV-positive donors
Protocol: (§1) The effects of flavopereirine on the production of primary (IL-1β and TNF-α) and secondary (IL-6) cytokines by monocytes was also tested. The adhesive monocytes used were taken from the blood of two types of donors:
HIV-positive donors from medical consultations. These individuals were in the early stages of HIV infection and, at the moment of taking the blood, were not undergoing any treatment. The risk factors involved were intravenous drug abuse for six of the donors, sexual transmission for three and blood transfusion (in Zaire) for one patient. No correlation was found between the risk factors and the results of the experiments.
The response of the monocytes taken from the various HIV-positive donors was tested in terms of spontaneous response. The quantities of cells received were low (the donors were not affected by cytapheresy), and the experiments were therefore limited by the number of cells available.
Interleukin-4 was used at the same time as flavopereirine H, since it has been shown prior to these experiments that this cytokine blocks the spontaneous production of interleukin-6 in certain HIV-positive patients.
In five cases, […] was used for comparison, since this, too, blocks the production of IL-6 in normal monocytes stimulated by LPS.

IL-1β = IL-1β production by monocytes of normal donors; conditions: 1000 U/ml, 48 hours; except donor #10
Protocol: as §1
(§2) Normal donors--voluntary blood donors who attended the blood bank of the Pitie-Salpetriere Hospital, Paris, France; and
(§3) Product H was not used in these experiments at a rate of more than 20 μg/ml water, since above this rate, net toxicity could have been produced.

TNF-α = TNF-α production by monocytes of normal donors; conditions: 1000 U/ml, 48 hours
Protocol: as §1, §2, §3

Interleukin-9: blocks the production of IL-6 in normal monocytes stimulated by LPS
compound effect with interleukin-4 on IL-6 production (interleukin-6; combined with interleukin-4, five cases): never has a compound effect to that of interleukin-4 | maximum inhibition of spontaneous production of IL-6 (interleukin-6; five cases): ≤ 50%

interferon: stimulation of monocytes over a period of 48 hours with interferon (1000 U/ml) [reference compound]
production of primary cytokines (IL-1β) (IL-1β): did not cause any production of primary cytokines, except in donor #10 in 1L-1β | production of primary cytokines (TNF-α) (TNF-α): did not cause any production of primary cytokines

B1: Interleukin-4: cytokine that blocks the spontaneous production of interleukin-6 in certain HIV-positive patients (protein, UniProt P05112 25-153, looked up)
Interleukin-4: HKCDITLQEIIKTLNSLTEQKTLCTELTVTDIFAASKNTTEKETFCRAATVLRQFYSHHEKDTRCLGATAQQFHRHKQLIRFLKRLDRNLWGLAGLNSCPVKEANQSTLENFLERLKTIMREKYSKCSS
inhibition of production of IL-6 (interleukin-6; alone, never total, p<0.05): inhibited the production of IL-6, but this inhibition was never total
